# Assay results: patent US12516095B2, “Peptide hormone analogues” (IP2IPO INNOVATIONS LIMITED, priority 2019, dated 2026)
# Starred links: 1 amine or outer side, 2 acyl side, 3 side chain; linkers in the order of their positions; H or OH if unused. Non-standard residues stand in square brackets, D forms with d. Residues, ends and D or L forms follow the SMILES beside them. Groups on a side chain read outwards from the residue. *: point of attachment. C20 diacid = O=C(O)CCCCCCCCCCCCCCCCCCC(=O)*; C18 diacid = O=C(O)CCCCCCCCCCCCCCCCC(=O)*; γGlu = O=C(O)[C@H](CCC(=O)[*:2])N[*:1]; Aib = CC(C)(N)C(=O)O
# Assay: PK measurements for half life assessment in pigs
# Type: in vivo, pig
# Conditions: male, large white, pig, plasma, sc, single subcutaneous injection, time from tmax to half of Cmax, typically mean of four animals
# Protocol: Male large white pigs receive a single subcutaneous injection of the test compound at the start of study (0 hours). Repeated blood samples were taken from the pig over the proceeding 168 hours and plasma separated and stored at −20 to −80° C. Plasma concentration of the test compound was quantified using a radioimmunoassay or mass spectrum analysis. Time taken from tmax to half of Cmax was calculated and represents the half-life (t½) of the compound. Typically, the presented t½ is the mean of four separate animals.
row,Compound,half-life [h]
1,H-H[Aib]HGTFTSDYSKYLDAKRAQEFIEWLLQSHHQQHESPPPGK([γGlu-C20 diacid])-OH [Example 646],42
2,CC[C@H](C)[C@H](NC(=O)[C@H](Cc1ccccc1)NC(=O)[C@H](CCC(=O)O)NC(=O)[C@H](CCC(N)=O)NC(=O)[C@H](C)NC(=O)[C@H](CCCNC(=N)N)NC(=O)[C@H](CCCCN)NC(=O)[C@H](C)NC(=O)[C@H](CC(=O)O)NC(=O)[C@H](CC(C)C)NC(=O)[C@H](Cc1ccc(O)cc1)NC(=O)[C@H](CCCCN)NC(=O)[C@H](CO)NC(=O)[C@H](Cc1ccc(O)cc1)NC(=O)[C@H](CC(=O)O)NC(=O)[C@H](CO)NC(=O)[C@@H](NC(=O)[C@H](Cc1ccccc1)NC(=O)[C@@H](NC(=O)CNC(=O)[C@H](Cc1c[nH]cn1)NC(=O)C(C)(C)NC(=O)[C@@H](N)Cc1c[nH]cn1)[C@@H](C)O)[C@@H](C)O)C(=O)N[C@@H](CCC(=O)O)C(=O)N[C@@H](Cc1c[nH]c2ccccc12)C(=O)N[C@@H](CC(C)C)C(=O)N[C@@H](CC(C)C)C(=O)N[C@@H](CCC(N)=O)C(=O)N[C@@H](CO)C(=O)N[C@@H](Cc1c[nH]cn1)C(=O)N[C@@H](Cc1c[nH]cn1)C(=O)N[C@@H](CCC(N)=O)C(=O)N[C@@H](CCC(N)=O)C(=O)N[C@@H](Cc1c[nH]cn1)C(=O)N[C@@H](CCC(=O)O)C(=O)N[C@@H](CO)C(=O)N1CCC[C@H]1C(=O)N1CCC[C@H]1C(=O)N1CCC[C@H]1C(=O)N[C@@H](CCCCNC(=O)[C@H](Cc1c[nH]cn1)NC(=O)[C@H](CC(N)=O)NC(=O)CC[C@H](NC(=O)CCCCCCCCCCCCCCCCC(=O)O)C(=O)O)C(=O)O [Example 649] (H-H[Aib]HGTFTSDYSKYLDAKRAQEFIEWLLQSHHQQHESPPPK([His-Asn-γGlu-C18 diacid])-OH),84
3,CC[C@H](C)[C@H](NC(=O)[C@H](Cc1ccccc1)NC(=O)[C@H](CCC(=O)O)NC(=O)[C@H](Cc1c[nH]cn1)NC(=O)[C@H](C)NC(=O)[C@H](CCCNC(=N)N)NC(=O)[C@H](CCCCN)NC(=O)[C@H](C)NC(=O)[C@H](CC(=O)O)NC(=O)[C@H](CC(C)C)NC(=O)[C@H](Cc1ccc(O)cc1)NC(=O)[C@H](CCCCN)NC(=O)[C@H](CO)NC(=O)[C@H](Cc1ccc(O)cc1)NC(=O)[C@H](CC(=O)O)NC(=O)[C@H](CO)NC(=O)[C@@H](NC(=O)[C@H](Cc1ccccc1)NC(=O)[C@@H](NC(=O)CNC(=O)[C@H](Cc1c[nH]cn1)NC(=O)C(C)(C)NC(=O)[C@@H](N)Cc1c[nH]cn1)[C@@H](C)O)[C@@H](C)O)C(=O)N[C@@H](CCC(=O)O)C(=O)N[C@@H](Cc1c[nH]c2ccccc12)C(=O)N[C@@H](CC(C)C)C(=O)N[C@@H](CC(C)C)C(=O)N[C@@H](CCC(N)=O)C(=O)N[C@@H](CO)C(=O)N[C@@H](Cc1c[nH]cn1)C(=O)N[C@@H](CCC(N)=O)C(=O)N[C@@H](CCC(N)=O)C(=O)N[C@@H](Cc1c[nH]cn1)C(=O)N[C@@H](CO)C(=O)N1CCC[C@H]1C(=O)N1CCC[C@H]1C(=O)N1CCC[C@H]1C(=O)N[C@@H](CCCCNC(=O)[C@H](CO)NC(=O)CNC(=O)CC[C@H](NC(=O)CCCCCCCCCCCCCCCCC(=O)O)C(=O)O)C(=O)O [Example 507] (H-H[Aib]HGTFTSDYSKYLDAKRAHEFIEWLLQSHQQHSPPPK([Ser-Gly-γGlu-C18 diacid])-OH),112
